Experimental data from PubChem BioAssay (NCI).
Several values for one entry are separate records, joined by “and”; a condition that tells them apart may be missing. Identical values can stand only once.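 Five concentrations, 48 hours, 96-well plates. GI50 marks 50% less growth. TGI: concentration producing complete growth inhibition.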

Tests used:
Assay in all cases: growth of human tumour cells (NCI), 48 h
IGROV1 ovarian = test system: IGROV1 ovarian
786-0 renal = test system: 786-0 renal
U251 CNS = test system: U251 CNS
A549 NSCLC = test system: A549 NSCLC
CAKI-1 renal = test system: CAKI-1 renal
SF-268 CNS = test system: SF-268 CNS
MDA-MB-435 = test system: MDA-MB-435
HT29 colon = test system: HT29 colon
K-562 leukemia = test system: K-562 leukemia
HCC-2998 colon = test system: HCC-2998 colon

| SMILES | GI50 (IGROV1 ovarian) | TGI (IGROV1 ovarian) | GI50 (786-0 renal) | TGI (786-0 renal) | GI50 (U251 CNS) | TGI (U251 CNS) | GI50 (A549 NSCLC) | TGI (A549 NSCLC) | GI50 (CAKI-1 renal) | TGI (CAKI-1 renal) | GI50 (SF-268 CNS) | TGI (SF-268 CNS) | GI50 (MDA-MB-435) | TGI (MDA-MB-435) | GI50 (HT29 colon) | TGI (HT29 colon) | GI50 (K-562 leukemia) | TGI (K-562 leukemia) | GI50 (HCC-2998 colon) | TGI (HCC-2998 colon) |
| --- | --- | --- | --- | --- | --- | --- | --- | --- | --- | --- | --- | --- | --- | --- | --- | --- | --- | --- | --- | --- |
| COc1ccc(C#Cc2ccccc2C#CCCCCO)cc1 | 18.8 µM | 34.1 µM | 22.8 µM | 45.9 µM | 12.7 µM | 25.3 µM | 18.2 µM | 33.7 µM | 22.3 µM | 40.3 µM | 21.7 µM | 42.9 µM | 21.1 µM | 38.9 µM | 12.3 µM | 24.8 µM | 21.9 µM | 43.9 µM | 17.9 µM | 33.3 µM |
| COC1=CC(c2ccc[nH]2)=N/C1=C\c1[nH]c(C)c(C(=O)OCc2ccccc2)c1C | 0.286 µM | 9 µM | 0.0666 µM | 1.08 µM | 0.0616 µM | 1.26 µM | 0.0826 µM | 4.68 µM | 0.0483 µM | 1.76 µM | 0.11 µM | 1.94 µM | 0.0557 µM | 1.31 µM | 0.0359 µM | 1.27 µM | 0.0855 µM | 1.46 µM | 0.087 µM | 1.71 µM |
| CC(C)[C@](O)(c1ccc2cc(OC(F)F)c(OC(F)F)cc2c1)c1cn[nH]n1 | 24.6 µM and 17.8 µM | 70.7 µM and 44.5 µM | 17.8 µM and 16.9 µM | 39.4 µM and 39.9 µM | 16.5 µM and 16.1 µM | 33.5 µM and 32 µM | 23.5 µM and 19.5 µM | 59.7 µM and 47.6 µM | 13 µM and 10.2 µM | 37 µM and 34.5 µM | 18.7 µM and 14.4 µM | 50.3 µM and 34.6 µM | 16 µM and 15.4 µM | 32.6 µM and 33 µM | 16 µM and 20.8 µM | 36.3 µM and 46.6 µM | 20.1 µM and 24.8 µM | 66.3 µM and 80.7 µM | 18.2 µM and 18.4 µM | 36.3 µM and 34.5 µM |
| COc1ccc2c(c1)C(=O)c1c-2n(CCCN)c(=O)c2ccccc12 | < 0.0138 µM | 0.689 µM | 0.0196 µM | 0.31 µM | < 0.0173 µM | 0.271 µM | < 0.01 µM | 0.0689 µM | < 0.0468 µM | 0.251 µM | 0.045 µM | 1.09 µM | 0.146 µM | 1.61 µM | < 0.0298 µM | 0.188 µM | < 0.01 µM | 0.187 µM | 0.164 µM | 1.18 µM |
| C=C(Cn1c(=O)c2ccccc2c2ccccc21)c1ccc(C(=O)Nc2ccccc2N)cc1 | 1.36 µM | > 29 µM | 5.95 µM | > 100 µM | 16.3 µM | > 100 µM | > 48.3 µM | > 100 µM | 23.3 µM | > 100 µM | 12.6 µM | > 100 µM | 24.2 µM | > 100 µM | 13.3 µM | > 83.8 µM | 0.781 µM | – | 31.1 µM | > 100 µM |
| C[n+]1c(/C=C\C=C\N2CCCCC2)sc2ccccc21 | 0.84 µM | 33.8 µM | 2.55 µM | > 36.6 µM | 0.291 µM | 15 µM | 0.413 µM | 3.07 µM | 4.8 µM | 28.9 µM | 0.457 µM | 14.8 µM | 0.266 µM | 1.96 µM | 0.321 µM | 11.7 µM | 0.172 µM | 12.7 µM | 0.451 µM | 14.1 µM |
| CO[C@H](C(=O)[C@@H](O)[C@@H](C)O)[C@@H]1Cc2cc3cc(O[C@H]4C[C@@H](O[C@H]5C[C@@H](O)[C@H](O)C(C)O5)[C@H](O)C(C)O4)c(C)c(O)c3c(O)c2C(=O)[C@H]1O[C@H]1C[C@@H](O[C@H]2C[C@@H](O[C@H]3C[C@@H](OC)[C@H](O)C(C)O3)[C@@H](O)C(C)O2)C(O)(O)C(C)O1 (some centres undefined) | 0.116 µM | > 25 µM | 0.164 µM | > 25 µM | 0.0329 µM | > 25 µM | 0.0843 µM | > 25 µM | 2.89 µM | > 17.3 µM | 0.128 µM | > 25 µM | 0.171 µM | 3.53 µM | 0.212 µM | 5.01 µM | 0.19 µM | > 25 µM | 0.47 µM | 5.09 µM |
| CC(=O)N1CCN(C2=Nc3ccccc3CO2)C1=S | 18.3 µM | 58.1 µM | > 100 µM | > 100 µM | > 100 µM | > 100 µM | > 100 µM | > 100 µM | > 100 µM | > 100 µM | > 100 µM | > 100 µM | 81.4 µM | > 100 µM | 89.6 µM | > 100 µM | 46.5 µM | > 100 µM | 26.9 µM | 97.2 µM |
| Cc1c2cc[nH]c(=O)c2c(C)c2c1[nH]c1cc(OCCN3CCN(C)CC3)ccc12 | 0.799 µM | 7.59 µM | 0.946 µM | 5.09 µM | 0.953 µM | 6.66 µM | 0.452 µM | 1.96 µM | 2.17 µM | 9.55 µM | 0.74 µM | 7.97 µM | 1.06 µM | 2.43 µM | 0.432 µM | 2.03 µM | 0.949 µM | 10.7 µM | 1.26 µM | 7.24 µM |
| CC(=O)C1=C(O)C=C2Oc3c(C(=O)/C=C/c4cc(C(F)(F)F)cc(C(F)(F)F)c4)c(O)c(C)c(O)c3[C@]2(C)C1=O | 0.671 µM | 8.83 µM | 0.602 µM | 2.35 µM | 0.532 µM | 1.7 µM | 0.666 µM | 4.42 µM | 0.531 µM | 4.83 µM | 0.736 µM | 4.04 µM | 0.587 µM | 2.35 µM | 0.535 µM | 1.71 µM | 0.498 µM | 15 µM | 1.53 µM | 3.63 µM |
| O=[N+]([O-])c1ccc(Nc2ccccc2-c2ccccc2)c2nonc12 | 12 µM | > 63.6 µM | 12.6 µM | 32.6 µM | 13.4 µM | 29.3 µM | 16.7 µM | > 86.8 µM | 12.3 µM | 50.2 µM | 14.9 µM | 36.8 µM | 13.9 µM | 45.9 µM | 19.3 µM | 47.2 µM | 18 µM | > 100 µM | 11.7 µM | 27.2 µM |
| CCCN(CCC)CCCNCc1cc(I)cc(C)c1O | 15.6 µM | 29.6 µM | 13.6 µM | 26.4 µM | 15.9 µM | 29.4 µM | 19.4 µM | 42.4 µM | 14.6 µM | 30.6 µM | 15.9 µM | 29.4 µM | 12 µM | 24.8 µM | 7.21 µM | 20 µM | 6.12 µM | 19.4 µM | 20.9 µM | 36.1 µM |
